Data published in patent publication US6815546B2, “Analogues of camptothecin, their use as medicaments and the pharmaceutical compositions containing them” (Societe de Recherches et d'Applications Scientifiques …, priority 1995, dated 2004).

Tested on: Adenocarcinoma HT29 cells from the human colon
Assay: Adenocarcinoma HT29 cell proliferation, WST1 (compounds in DMA)
Type: cell-based
Conditions: final DMA 0.1% (v/v)
Experimental: c. Adenocarcinoma HT29 cells from the human colon are cultured in a single layer at 37° in a humidified atmosphere containing 95% of air and 5% of CO2, in a modified essential Earle's medium at 4.5 g/l (Gibco, Paisley, United Kingdom); completed with 10% of inactivated foetal calf serum, 2 mM of glutamine, and 50 μg/ml of gentamycin (Gibco, Paisley, United Kingdom).
Approximately 2000 cells are seeded with the culture medium above in the wells of a microplate (96 wells, flat-bottomed) and incubated for 24 hours. Solutions in N,N-dimethyl-acetamide (DMA) of each of the examples of the invention, diluted in the culture medium so that the final concentration of DMA is 0.1% (v/v), are added to the plate cultures in order to obtain final concentration ranges from 1×10^−13 to 1×10^−5 M, and the cells are incubated for 72 hours.
The WST1 staining reagent, (Boehringer Mannheim, Germany) is then added to each well at a final concentration of 9%, and the cells are incubated for 2 hours at 37° C. This stage allows the mitochondrial deshydrogenase of the living cells to convert WST1 orange tetrazolium salt into crimson formazan. The resulting stained solutions are quantified by dual-beam detection ([…]) using a multi-cuvette scanning spectrophotometer.
The results shown in the following table III C) are expressed in terms of inhibitory concentration at 50% (IC50, in nM), accompanied by a confidence interval.

Work on `CCc1c2c(nc3cc(F)ccc13)-c1cc3c(c(=O)n1C2)COC(=O)C[C@]3(O)CC` [Example 106, (5R)-5,12-diethyl-9-fluoro-5-hydroxy-4,5,13,15-tetrahydro-1H,3H-oxepino[3′,4′:6,7]indolizino[1,2-b]quinoline-3,15-dione] yielded an IC50 (Homo sapiens, HT-29, 72 hours) of 3.5 nM.
In the case of `CC[C@@]1(O)CC(=O)OCc2c1cc1n(c2=O)Cc2c-1nc1cc(F)ccc1c2CC(C)(C)C` [Example 163, (5R)-5-ethyl-9-fluoro-5-hydroxy-12-neopentyl-4,5,13,15-tetrahydro-1H,3H-oxepino[3′,4′:6,7]indolizino[1,2-b]quinoleine-3,15-dione], the IC50 (72 hours) is reported as 6 nM.
Work on `CC[C@@]1(O)CC(=O)OCc2c1cc1n(c2=O)Cc2c-1nc1ccccc1c2CC[Si](C)(C)C` [Example 104, (5R)-5-ethyl-5-hydroxy-12-(2-trimethylsilylethyl)-4,5,13,15-tetrahydro-1H,3H-oxepino[3′,4′:6,7]indolizino[1,2-b]quinoline-3,15-dione] yielded an IC50 (Homo sapiens, HT-29, 72 hours) of 8.6 nM.
Work on `CC[C@@]1(O)CC(=O)OCc2c1cc1n(c2=O)Cc2c-1nc1ccccc1c2Cl` [Example 160, (5R)-12-chloro-5-ethyl-5-hydroxy-4,5,13,15-tetrahydro-1H,3H-oxepino[3′,4′:6,7]indolizino[1,2-b]quinoleine-3,15-dione] yielded an IC50 (72 hours) of 5.5 nM.
